“And” between values parts separate entries of the source, which are not always exact repeats. Equal entries are not always repeated.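 Grown in 96-well plates, cells were treated for 48 hours with each compound at five concentrations. Insufficient inhibition: endpoint recorded as highest concentration tested. GI50 = concentration required for 50% inhibition of growth. TGI: total growth inhibition.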
Test system: MDA-MB-468 breast
Assay: NCI anticancer screen, dose series, 48 h

Compound	GI50	TGI
O=C(NNc1nc2cc(F)ccc2n2cccc12)c1ccncn1	0.293 µM	1.65 µM
O=C(c1ccc(F)c(F)c1Nc1ccc(I)cc1F)N1CC(O)([C@H]2CCCCN2)C1	4.52 µM	10.7 µM
COc1cccc(N2CCN(c3ncnc4c3[nH]c3ccc(F)cc34)C[C@@H]2C)c1	1.59 µM	5.31 µM
COc1cc(C2=Nc3c/c(=C\c4c(O)[nH]c5ccc(Cl)cc45)ccc3=N2)cc(OC)c1OC	1.97 µM	4.41 µM
O=C(/C=C/c1ccccc1O)c1ccccc1	6.06 µM	19.2 µM
CCCCN(CCCC)c1cc(C(=O)CCCCCN)c2ccccc2n1	1.43 µM	3.05 µM
CCc1ccc(/C(C#N)=C/C=C/c2ccccc2)cc1	0.838 µM	9.87 µM
CCCCCCCCCCCCCCCCCC(=O)[O][Sn]([CH2]CCC)([CH2]CCC)[CH2]CCC	0.0835 µM	0.214 µM
NC(=O)c1ncn(C2OC(CO)C(O)C2O)n1 (stereo unspecified)	69.7 µM	> 100 µM
COC(=O)C1=C(C(=O)Nc2cccnc2)C2OC1(C(Cc1ccccc1)Oc1ccccc1)C1OC21 (stereo unspecified)	1.72 µM	4.25 µM
CCNC(=O)Nc1ccc(-c2nc3c(c(N4CCOC[C@@H]4C)n2)CCN(C2COC2)C3)cc1	0.135 µM and 0.125 µM	1.72 µM and 1.38 µM
O=C(/C=C\c1cccc([N+](=O)[O-])c1)c1ccccc1	1.65 µM	9.51 µM
CCN1CCN(CCNc2nccc(-c3c(-c4cccc(O)c4)nc4sccn34)n2)S1(=O)=O	9.04 µM and 12.5 µM	32.5 µM and 36.6 µM
NCC(=O)Nc1ccc(-n2nc(C(F)(F)F)cc2-c2ccc3c(ccc4ccccc43)c2)cc1	1.56 µM	3.02 µM
CCN(CC)CCC(CNc1c2ccc([N+](=O)[O-])cc2nc2cc(OC)c(OC)cc12)c1ccccc1 (stereo unspecified)	0.324 µM and 0.229 µM	1.63 µM and 1.22 µM
COc1cc(-c2nn(C)nc2-c2cc3ccccc3s2)cc(OC)c1OC	0.0828 µM	> 100 µM
NC(=O)Cc1ccccc1Oc1nccc(-c2c(-c3ccc(F)cc3)ncn2C2CCNCC2)n1	8.2 µM	> 25 µM
C[C@H]1O[C@@H](O[C@H]2[C@@H](O)C[C@H](O[C@H]3[C@@H](O)C[C@H](O[C@H]4CC[C@]5(C)C6C[C@@H](O)[C@]7(C)[C@@H](C8=CC(=O)OC8)CC[C@]7(O)C6CC[C@@H]5C4)O[C@@H]3C)O[C@@H]2C)C[C@H](O)[C@@H]1O (stereo partly specified)	0.148 µM	0.465 µM
O=[N+]([O-])c1ccc(Oc2cccnc2)c([N+](=O)[O-])c1	3.06 µM	13.8 µM
CN(C)c1cc2c(Nc3ccc4nc(Cc5ccccc5)[nH]c4c3)ncnc2cn1	> 9.6 µM	> 25 µM
CCOc1ccc(/C=N/Nc2cc(C)nc3ccc(Cl)cc23)cc1	1.73 µM	3.27 µM
O=C(Nc1cccc(-n2cc(-c3ccncc3)c(-c3cc(O)cc(Cl)c3)n2)c1)Nc1ccc(Cl)c(Cl)c1	1.71 µM	7.09 µM

Compound	GI50	TGI
O=C1OCC2=C1C(c1cccc([N+](=O)[O-])c1)c1cc3c(cc1N2CCO)CCC3 (stereo unspecified)	0.147 µM	8.88 µM
O=Cc1ncc(-c2ccc(C(F)(F)F)cc2)c(NC2CCCCCC2)n1	> 10 µM	> 10 µM
COc1cccc(C2=NN(C(C)=O)C(c3cc(OC)c(OC)c(OC)c3)C2)c1 (stereo unspecified)	1.01 µM	> 30.9 µM
C=CC[Se]C(=O)c1ccccc1OC(C)=O	1.78 µM	3.75 µM
Clc1ccc(-c2nc(-c3c[nH]c4ncccc34)cs2)cc1	> 100 µM	> 100 µM
CNC(=O)c1cc(Oc2ccc3nc(NC(=O)c4cc(C(F)(F)F)cc(C(F)(F)F)c4)sc3c2)ccn1	3.18 µM	14.2 µM
Cc1oncc1C(=O)Nc1ccc(C(F)(F)F)cc1	37.1 µM	> 100 µM
C=C1C(=O)O[C@H]2[C@H]1CC/C(COC(=O)NCc1c[nH]c3ccc(OC)cc13)=C\CC[C@@]1(C)O[C@@H]21	1.32 µM	4.62 µM
COC(=O)c1c2c(c[n+]([O-])c1C)C(=O)C(NCc1ccccc1)=CC2=O	0.232 µM	0.672 µM
Cn1c(=O)c(Sc2ccccc2F)cc2cnc(NC3CCOCC3)nc21	> 25 µM	> 25 µM
CN(C)c1cc2c(cc1Sc1nc3c(N)nccc3n1CCNCC(C)(C)C)OCO2	0.268 µM	0.888 µM
Cc1ccccc1NC(=O)N/C(N)=N/c1nc2ccccc2s1	0.233 µM	> 100 µM
O=C(/C=C/c1ccccc1Cl)c1ccc(O)cc1	2.77 µM	13 µM
COc1ccc(Nc2nc(NCc3ccccc3)c3ccccc3n2)cc1	1.61 µM	3.37 µM
Cc1nc(NC(=O)COc2cccc(/C=C3\COc4ccccc4C3=O)c2)sc1C	1.76 µM	3.84 µM
Cc1cc(N2CCOCC2)nc(N(CCNc2ccnc3cc(Cl)ccc23)Cc2ccco2)n1	2.09 µM	6.41 µM
O=C1OCC2=C1C(c1ccccc1)c1cc3c(cc1N2CCO)CCC3 (stereo unspecified)	0.0559 µM	0.156 µM
O=C(O[C@H]1CN[C@H](C#Cc2cc3ncnc(Nc4ccc(Cc5ccccc5)cc4)c3s2)C1)N1CCOCC1	1.27 µM	6.37 µM
Clc1cccc(Cn2cc(Cc3cn(Cc4cccc(Cl)c4)c4ccccc34)c3ccccc32)c1	17 µM	37.3 µM
Clc1ccc(N/N=C/c2ccccn2)nc1	0.26 µM	1.51 µM
CC(C)[C@@H]1NC(=O)[C@]2(C)CSC(=N2)c2csc(n2)CNC(=O)C[C@@H](/C=C/CCS)OC1=O	0.206 µM	4.43 µM

From PubChem BioAssay (NCI)
